Measurements as given in patent US11439657B2, “Cancer stem cell growth inhibitor using miRNA” (CancerStem Tech Inc., priority 2017, dated 2022).

Legend:
Format in all cases: cell-based
[1] = test system: human large bowel cancer cells (DLD1 line and HT29 line); assay: Colony formation assay; conditions: DLD1 and HT29 lines; 50 nM; culture for 10 days; versus control miRNA; FIG. 14
Experimental: A cell suspension prepared by suspending human large bowel cancer cells (DLD1 line and HT29 line) in RPMI medium (containing 10% by volume FBS) was seeded in each well of a 6-well plate at 3×10^5 cells/well, followed by culture for 2 days. Then, the medium was changed to RPMI medium (containing no FBS), and a mixture of lipofectamin RNAiMAX Regent (final concentration in each well: 0.03 μL/ml) and hsa-miR-3065-3p (final concentration in each well: 50 nM) was added for transfection, followed by culture for 8 hours. Then, cells after transfection were recovered and suspended in RPMI medium (containing 10% by volume FBS), and were seeded in each well of a 6-well plate at 500 cells/well, followed by culture for 10 days. Thereafter, the culture supernatant was removed, and cells were fixed with methanol and then stained with crystal violet to count the formed colonies. In addition, tests were also performed under the same condition on a case where a control miRNA (SEQ ID NO: 9) was used (control miRNA, negative control) in place of hsa-miR-3065-3p.

[2] = test system: human large bowel cancer cells (DLD1 line); assay: Wound healing assay; conditions: 20 pmol/well, wound area at 24 and 48 hours, compared to the negative control, FIG. 17
Experimental: Wound healing assay was performed using Culture-Insert (NIPPON Genetics Co, Ltd). In each well of a 24-well plate, 70 μl of cell suspension (4.9×10^4 cells/well) prepared by suspending human large bowel cancer cells (DLD1 line) in RPMI medium (containing 10% by volume FBS) and an insert that could create a constant gap of 0.5±0.05 mm in width between cells were placed, followed by culture for 1 day, so that a single layer of cells and an area where there is no cell (wound area) corresponding to the gap were formed at the bottom of the well. Then, the insert and culture supernatant were remove, 500 μl of DMEM medium (serum free) was added to each well, and further a mixture of lipofectamin RNAiMAX Regent (final concentration in well: 2 μl/well) and hsa-miR-3065-3p (final concentration in well: 20 pmol/well) was added, followed by culture for 1 day. Thereafter, the medium was changed to RPMI medium (containing 10% by volume FBS), followed by culture for 48 hours. The culture using RPMI medium (containing 10% by volume FBS) had the medium replaced with a fresh medium at 24 hours after the start of culture. The area of wound area was determined at 0, 24 and 48 hours from the start of culture using RPMI medium (containing 10% by volume FBS). When the wound area at 0 hour from the start of culture was 100%, the percentages of wound area at 24 and 48 hours after culture were determined. […]

[3] = test system: human large bowel cancer cells (HT29 line, HCT116 line and DLD1 line); assay: Proliferation assay (absorbance at 450 nm over time); conditions: HT29, HCT116 and DLD1 lines; 50 nM; culture for 96 hours; versus control miRNA; FIG. 13
Experimental: A cell suspension prepared by suspending human large bowel cancer cells (HT29 line, HCT116 line and DLD1 line) in DMEM medium (containing 10% by volume FBS) was seeded in each well of a 96-well plate at 3×10^3 cells/well, followed by culture at 37° C. overnight. Then, a mixture of lipofectamin RNAiMAX, Reagent (final concentration in each well: 0.03 μL/ml) and hsa-miR-3065-3p (final concentration in each well: 50 nM) was added for transfection. Subsequently, culture was carried out for 96 hours, and the absorbance at 450 nm was measured over time. In addition, tests were also performed wider the same condition on a case where a control miRNA (SEQ ID NO: 9) was used (control miRNA, negative control) in place of hsa-miR-3065-3p.
In FIG. 13, the time-course of relative values of the absorbance is shown, in which the relative values were determined when the absorbance after culture for 24 hours from transfection of hsa-miR-3065-3p was 1. […] This is because, as described above, among human large bowel cancer cells (HT29 line, HCT116 line and DLD1 line), cancer stem cells are present, so that hsa-miR-3065-3p is considered to intensively suppress proliferation of the cancer stem cells in particular, leading to the result.

With “hsa-miR-3065-3p: human-derived miR-3065-3p; base sequence set forth in SEQ ID NO: 2 as mature miRNA (UCAGCACCAGGAUAUUGUUGGAG; listed as RNA, chemistry not given here; listed as Homo sapiens)” the “colony forming ability of human large bowel cancer cells” value [1] was “able to inhibit the colony forming ability”, the “decrease in wound area (migration)” value [2] was “significantly suppressed” and the “proliferation inhibitory effect on human large bowel cancer cells” value [3] was “high proliferation inhibitory effect”.
